Where a chain is given by its changes, count along the chain named.
Tests used:
[1] = molecular target: T1, human corticosteroid binding globulin (CBG) variant glycosylated solely at position 74 (Homo sapiens, UniProt P08185, N176Q/N260Q/N31Q/N330Q/N369Q); assay: Steroid binding of CBG variant with [3H]-cortisol; conditions: CHO culture media
T1 construct: made in house; host or cells: CHO cells (CHO pro), measured in culture medium
T1 sequence (P08185 23-405 N31Q/N176Q/N260Q/N330Q/N369Q): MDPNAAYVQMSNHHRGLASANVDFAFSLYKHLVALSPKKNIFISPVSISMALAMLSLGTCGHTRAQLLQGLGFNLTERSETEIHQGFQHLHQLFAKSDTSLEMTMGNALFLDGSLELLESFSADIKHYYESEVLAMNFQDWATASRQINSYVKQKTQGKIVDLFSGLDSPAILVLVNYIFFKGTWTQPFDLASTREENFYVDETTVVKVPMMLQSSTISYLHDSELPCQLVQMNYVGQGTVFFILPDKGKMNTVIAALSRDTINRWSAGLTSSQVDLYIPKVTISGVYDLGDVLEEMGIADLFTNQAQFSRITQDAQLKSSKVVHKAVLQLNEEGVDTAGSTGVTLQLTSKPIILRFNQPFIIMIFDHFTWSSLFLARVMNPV
Experimental: Chim. Acta, 1983, 132:101. Initially, samples of culture media were added to tubes of PBS containing [^3 H]-cortisol. The mixture in the tubes was vortex mixed and incubated at room temperature for 1 h followed by a further incubation in an ice-water for 15 min. Dextran-coated charcoal (DCC) suspension at 0° C. […] The tubes were incubated for […] 0° C. […] The binding capacity of the CBG variants was calculated in nmol/L after correction for dilution and the dissociation of bound complexes during the DCC treatment (12% for CBG). The affinity of the CBG variants for cortisol was measured using the Scatchard analysis. Prior to conducting the affinity measurement, the culture media was concentrated using *Centricon microconcentrators (Amicon).

[2] = molecular target: T2, human corticosteroid binding globulin (CBG), native (Homo sapiens, UniProt P08185); conditions: 4° C., physiological pH; read-out: binding affinity of the natural cortisol ligand for CBG; cited from earlier work
T2 sequence (P08185 23-405): T1 sequence (P08185 23-405 N31Q/N176Q/N260Q/N330Q/N369Q) with Q9N, Q154N, Q238N, Q308N, Q347N

[3] = molecular target: T3, human corticosteroid binding globulin (CBG) variant Asn238 to Gln (glycosylation site 238 disrupted) (Homo sapiens, UniProt P08185, N260Q); assay: Steroid binding capacity by saturation analysis with [3H]-cortisol, dextran-coated charcoal; conditions: CHO culture media
T3 construct: made in house; host or cells: CHO cells (CHO pro), measured in culture medium
T3 sequence (P08185 23-405 N260Q): T1 sequence (P08185 23-405 N31Q/N176Q/N260Q/N330Q/N369Q) with Q9N, Q154N, Q308N, Q347N
Experimental: (§1) The steroid binding capacity of the CBG variants in the culture media was measured by saturation analysis using as a labelled ligand [^3 H]-cortisol (55.8 Ci/mmol) obtained from DuPont, and dextran-coated charcoal as a separation agent as described by Hammond et al. in Clin. Chim. Acta, 1983, 132:101.
(§2) Initially, samples of culture media were added to tubes of PBS containing [^3 H]-cortisol. The mixture in the tubes was vortex mixed and incubated at room temperature for 1 h followed by a further incubation in an ice-water for 15 min. Dextran-coated charcoal (DCC) suspension at 0° C. (1.25 g Norit "A"(Amend Drug and Chemical Co.) and 0.125 g Dextran T-70 (AB Pharmacia) in 0.01 mol/l phosphate-buffered saline containing 0.1% gelatin, pH7) was added to the tubes to bind excess labelled cortisol. The tubes were incubated for […] 0° C. After centrifugation at 3000 X g for 5 min at 4° C. to sediment the DCC, the supernatants were decanted into scintillation counting vials containing 4 ml Aqueous Counting Scintillant (Amersham), which were capped, shaken and counted for 10 min or until 10,000 cpm had accumulated. The binding capacity of the CBG variants was calculated in nmol/L after correction for dilution and the dissociation of bound complexes during the DCC treatment (12% for CBG).

[4] = molecular target: T4, human corticosteroid binding globulin (CBG) variant Thr240 to Ala (glycosylation site 238 disrupted) (Homo sapiens, UniProt P08185, T262A); assay: as above; conditions: CHO culture media
T4 construct: in order to isolate a full-length CBG cDNA; made in house; host or cells: CHO cells (CHO pro), measured in culture medium
T4 sequence (P08185 23-405 T262A): T1 sequence (P08185 23-405 N31Q/N176Q/N260Q/N330Q/N369Q) with Q9N, Q154N, Q238N, T240A, Q308N, Q347N
Experimental: as §1, §2

[5] = molecular target: T5, human corticosteroid binding globulin (CBG) variant glycosylated at positions 74 and 238 (Homo sapiens, UniProt P08185, N176Q/N31Q/N330Q/N369Q); assay: Affinity for cortisol by Scatchard analysis, [3H]-cortisol with increasing unlabelled cortisol; conditions: concentrated CHO culture media
T5 construct: in order to isolate a full-length CBG cDNA; made in house; host or cells: CHO cells (CHO pro), measured in culture medium
T5 sequence (P08185 23-405 N31Q/N176Q/N330Q/N369Q): T1 sequence (P08185 23-405 N31Q/N176Q/N260Q/N330Q/N369Q) with Q238N
Experimental: as §1, §2
(§3) The affinity of the CBG variants for cortisol was measured using the Scatchard analysis.

[6] = molecular target: T6, human corticosteroid binding globulin (CBG) variant glycosylated solely at position 238 (sites 9, 74, 154, 308, 347 disrupted, Asn to Gln) (Homo sapiens, UniProt P08185, N176Q/N31Q/N330Q/N369Q/N96Q); assay: as above; conditions: concentrated CHO culture media, read-out: K8 (affinity for cortisol) (converted)
T6 construct: made in house; host or cells: CHO cells (CHO pro), measured in culture medium
T6 sequence (P08185 23-405 N31Q/N96Q/N176Q/N330Q/N369Q): T1 sequence (P08185 23-405 N31Q/N176Q/N260Q/N330Q/N369Q) with N74Q, Q238N
Experimental: as §1, §2, §3

C[C@]12CCC(=O)C=C1CC[C@@H]1[C@@H]2[C@@H](O)C[C@@]2(C)[C@H]1CC[C@]2(O)C(=O)CO [cortisol]
steroid-binding activity [1]: no steroid-binding activity
Kd [2]: ~0.7 nM
steroid-binding activity [3]: complete loss of steroid-binding activity
steroid-binding activity [4]: complete loss of steroid-binding activity
K4 (steroid-binding affinity) [5]: 1.9e+08 M⁻¹
Kd [6]: 9.09 nM

Source: patent US5595969A, “Variants of human corticosteroid binding globulin” (Allelix Biopharmaceutical Inc., priority 1995, dated 1997)
